Results as given in patent US11267823B2, “Substituted 1,2,3,3a,4,5,7,9,13,13a-decahydropyrido[1′,2′:4,5]pyrazino[1,2-a]pyrrolo[1,2-c]pyrimidines having HIV integrase inhibitory activity” (Shionogi & Co., Ltd., priority 2005, dated 2022).
Structures can show the parent of a compound that is named as a salt.

Test system: VSV-g pseudotyped HIV vector that expresses luciferase (PHIV)
Assay: microbe, parasite or virus in culture
Assay type: cell-based
Settings: Human immunodeficiency virus 1, HEK-293T, 48 h, read-out: PHIV IC50

Compound | IC50 [nM]
O=C(NCc1ccc(F)cc1F)c1cn2c(c(O)c1=O)C(=O)N1[C@@H](C2)OC[C@@H]2CCCC[C@@H]21 (racemic) [Example Z-35, racemic-(4aR,6aR,14aS)—N-[(2,4-Difluorophenyl)methyl]-12-hydroxy-11,13-dioxo-1,3,4,4a,5,6a,7,11,13,14a-decahydro-2H-pyrido[1′,2′:4,5]pyrazino[1,2-a][3,1]benzoxazine-10-carboxamide] | < 10
O=C(NCc1ccc(F)cc1)c1cn2c(c(O)c1=O)C(=O)N1[C@@H](C2)OC[C@@H]2CCCC[C@@H]21 (racemic) [Example Z-36, racemic-(4R,6aR,14aS)—N-[(4-Fluorophenyl)methyl]-12-hydroxy-11,13-d oxo-1,3,4,4a,5,6a,7,11,13,14a-decahydro-2H-pyrido[1′,2′:4,5]pyrazino[1,2-a][3,1]benzoxazine-10-carboxamide] | < 10
O=C(NCc1ccc(F)cc1F)c1cn2c(c(O)c1=O)C(=O)N1[C@@H](C2)OC[C@@H]2C[C@@H](c3ccccc3)CC[C@@H]21 (racemic) [Example Z-37, racemic-(3S,4aR,6aR,14aS)—N-[(2,4-Difluorophenyl)methyl]-12-hydroxy-11,13-dioxo-3-phenyl-1,3,4,4a,5,6a,7,11,13,14a-decahydro-2H-pyrido[1′,2′:4,5]pyrazino[1,2-a][3,1]benzoxazine-10-carboxamide] | < 10
CC(C)CN1C[C@@H]2CCCC[C@@H]2N2C(=O)c3c(O)c(=O)c(C(=O)NCc4ccc(F)cc4F)cn3C[C@@H]12 (racemic) [Example Z-38, Sodium racemic-(4aS,6aS,14aS)-10-({[(2,4-difluorophenyl)methyl]amino}carbonyl)-6-(2-methylpropyl)-11,13-dioxo-1,2,3,4,4a,5,6,6a,7,11,13,14a-dodecahydropyrido[1′,2′:4,5]pyrazino[1,2-a]quinazolin-12-olate] | 10 to 100
CC(C)CN1C[C@@H]2CCC[C@@H]2N2C(=O)c3c(O)c(=O)c(C(=O)NCc4ccc(F)cc4F)cn3C[C@@H]12 (racemic) [Example Z-49, racemic-(3aS,5aS,13aS)—N-[(2,4-Difluorophenyl)methyl]-11-hydroxy-5-(2-methylpropyl)-10,12-dioxo-2,3,3a,4,5,5a,6,10,12,13a-decahydro-1H-cyclopenta[e]pyrido[1′,2′:4,5]pyrazino[1,2-a]pyrimidine-9-carboxamide] | < 10
O=C(NCc1ccc(F)cc1F)c1cn2c(c(O)c1=O)C(=O)N1[C@H]3CCCC[C@H]3CN(CCN3CCOCC3)[C@@H]1C2 (racemic) [Example Z-51, racemic-(4aS,6aS,14aS)—N-[(2,4-Difluorophenyl)methyl]-12-hydroxy-6-[2-(4-morpholinyl)ethyl]-11,13-dioxo-1,2,3,4,4a,5,6,6a,7,11,13,14a-dodecahydropyrido-[1′,2′:4,5]pyrazino[1,2-a]quinazoline-10-carboxamide] | < 10
O=C(NCc1ccc(F)cc1F)c1cn2c(c(O)c1=O)C(=O)N1[C@@H](C2)OC[C@@H]2CCC[C@@H]21 (racemic) [Example Z-52, racemic-(3aR,5aR,13aS)—N-[(2,4-Difluorophenyl)methyl]-11-hydroxy-10,12-dioxo-1,2,3,3a,4,5a,6,10,12,13a-decahydrocyclopenta[d]pyrido[1′,2′:4,5]pyrazino[2,1-b][1,3]oxazine-9-carboxamide] | < 10
CN1C[C@@H]2CCCC[C@@H]2N2C(=O)c3c(O)c(=O)c(C(=O)NCc4ccc(F)cc4F)cn3C[C@@H]12 (racemic) [Example Z-53, racemic-(4aS,6aS,14aS)—N-[(2,4-Difluorophenyl)methyl]-12-hydroxy-6-methyl-11,13-dioxo-1,2,3,4,4a,5,6,6a,7,11,13,14a-dodecahydropyrido[1′,2′:4,5]pyrazino[1,2-a]quinazoline-10-carboxamide] | < 10
COCCN1C[C@@H]2CCCC[C@@H]2N2C(=O)c3c(O)c(=O)c(C(=O)NCc4ccc(F)cc4F)cn3C[C@@H]12 (racemic) [Example Z-54, racemic-(4aS,6aS,14aS)—N-[(2,4-Difluorophenyl)methyl]-12-hydroxy-6-[2-(methyloxy)ethyl]11,13-dioxo-1,2,3,4,4a,5,6,6a,7,11,13,14a-dodecahydropyrido[1′,2′:4,5]pyrazino[1,2-a]quinazoline-10-carboxamide] | < 10
CC(=O)NCCN1C[C@@H]2CCCC[C@@H]2N2C(=O)c3c(O)c(=O)c(C(=O)NCc4ccc(F)cc4F)cn3C[C@@H]12 (racemic) [Example Z-55] | 10 to 100
C[C@@H]1CO[C@H]2Cn3cc(C(=O)NCc4ccc(F)cc4F)c(=O)c(O)c3C(=O)N12 [Example Z-1, (3R,11aS)—N-[(2,4-Difluorophenyl)methyl]-6-hydroxy-3-methyl-5,7-dioxo-2,3,5,7,11,11a-hexahydro[1,3]oxazolo[3,2-a]pyrido[1,2-d]pyrazine-8-carboxamide sodium salt] | < 10
O=C(NCc1ccc(F)cc1F)c1cn2c(c(O)c1=O)C(=O)N1C[C@@H]3CCCN3[C@H]1C2 [Example Z-2, (4aR,13aS)—N-[(2,4-Difluorophenyl)methyl]-10-hydroxy-9,11-dioxo-2,3,4a,5,9,11,13,13a-octahydro-1H-pyrido[1,2-a]pyrrolo[1′,2′:3,4]imidazo[1,2-d]pyrazine-8-carboxamide] | < 10
O=C(NCc1ccc(F)cc1F)c1cn2c(c(O)c1=O)C(=O)N1CC[C@@H]3CCCN3[C@@H]1C2 [Example Z-3, (3aS,13aS)—N-[(2,4-Difluorophenyl)methyl]-8-hydroxy-7,9-dioxo-1,2,3,3a,4,5,7,9,13,13a-decahydropyrido-[1′,2′:4,5]pyrazino[1,2-a]pyrrolo[1,2-c]pyrimidine-10-carboxamide] | < 10
O=C(NCc1ccc(F)cc1F)c1cn2c(c(O)c1=O)C(=O)N1C[C@H]3CCCN3[C@@H]1C2 [Example Z-4, (4aS,13aR)—N-[(2,4-Difluorophenyl)methyl]-10-hydroxy-9,11-dioxo-2,3,4a,5,9,11,13,13a-octahydro-1H-pyrido[1,2-a]pyrrolo[1′,2′:3,4]imidazo[1,2-d]pyrazine-8-carboxamide sodium salt] | < 10
O=C(NCc1ccc(F)cc1)c1cn2c(c(O)c1=O)C(=O)N1C[C@H]3CCCN3[C@@H]1C2 [Example Z-5, (4aS,13aR)—N-[(4-Fluorophenyl)methyl]-10-hydroxy-9,11-dioxo-2,3,4a,5,9,11,13,13a-octahydro-1H-pyrido[1,2-a]pyrrolo[1′,2′:3,4]imidazo[1,2-d]pyrazine-8-carboxamide] | < 10
O=C(NCc1ccc(F)cc1F)c1cn2c(c(O)c1=O)C(=O)N1[C@@H](Cc3ccccc3)CO[C@@H]1C2 [Example Z-6, (3S,11aR)—N-[(2,4-Difluorophenyl)methyl]-6-hydroxy-5,7-dioxo-3-(phenylmethyl)-2,3,5,7,11,11a-hexahydro[1,3]oxazolo[3,2-a]pyrido[1,2-d]pyrazine-8-carboxamide] | < 10
O=C(NCc1ccc(F)cc1)c1cn2c(c(O)c1=O)C(=O)N1CC[C@@H]3CCCN3[C@@H]1C2 [Example Z-7, (3aS,13aS)—N-[(4-Fluorophenyl)methyl]-8-hydroxy-7,9-dioxo-1,2,3,3a,4,5,7,9,13,13a-decahydropyrido[1′,2′:4,5]pyrazino[1,2-a]pyrrolo[1,2-c]pyrimidine-10-carboxamide] | < 10
CC[C@H](C)[C@H]1CO[C@@H]2Cn3cc(C(=O)NCc4ccc(F)cc4F)c(=O)c(O)c3C(=O)N12 [Example Z-8, (3S,11aR)—N-[(2,4-Difluorophenyl)methyl]-6-hydroxy-3-[(1S)-1-methylpropyl]-5,7-dioxo-2,3,5,7,11,11a-hexahydro[1,3]oxazolo[3,2-a]pyrido[1,2-d]pyrazine-8-carboxamide sodium salt] | 10 to 100
C[C@H]1CO[C@@H]2Cn3cc(C(=O)NCc4ccc(F)cc4F)c(=O)c(O)c3C(=O)N12 [Example Z-9, (3S,11aR)—N-[(2,4-Difluorophenyl)methyl]-6-hydroxy-3-methyl-5,7-dioxo-2,3,5,7,11,11a-hexahydro[1,3]oxazolo[3,2-a]pyrido[1,2-d]pyrazine-8-carboxamide sodium salt] | < 10
C[C@H]1CO[C@@H]2Cn3cc(C(=O)NCc4ccc(F)cc4)c(=O)c(O)c3C(=O)N12 [Example Z-10, (3S,11aR)—N-[(4-fluorophenyl)methyl]-6-hydroxy-3-methyl-5,7-dioxo-2,3,5,7,11,11a-hexahydro[1,3]oxazolo[3,2-a]pyrido[1,2-d]pyrazine-8-carboxamide] | < 10
CC(C)(C)[C@H]1CO[C@@H]2Cn3cc(C(=O)NCc4ccc(F)cc4F)c(=O)c(O)c3C(=O)N21 [Example Z-11, (3S,11aR)—N-[(2,4-Difluorophenyl)methyl]-3-(1,1-dimethylethyl)-6-hydroxy-5,7-dioxo-2,3,5,7,11,11a-hexahydro[1,3]oxazolo[3,2-a]pyrido[1,2-d]pyrazine-8-carboxamide] | < 10
CC(C)(C)[C@H]1CO[C@@H]2Cn3cc(C(=O)NCc4ccc(F)cc4)c(=O)c(O)c3C(=O)N21 [Example Z-12, (3S,11aR)-3-(1,1-Dimethylethyl)-N-[(4-fluorophenyl)methyl]-6-hydroxy-5,7-dioxo-2,3,5,7,11,11a-hexahydro[1,3]oxazolo[3,2-a]pyrido[1,2-d]pyrazine-8-carboxamide] | < 10
O=C(NCc1ccc(F)cc1F)c1cn2c(c(O)c1=O)C(=O)N1[C@@H](c3ccccc3)CO[C@@H]1C2 [Example Z-13, (3S,11aR)—N-[(2,4-Difluorophenyl)methyl]-6-hydroxy-5,7-dioxo-3-phenyl-2,3,5,7,11,11a-hexahydro[1,3]oxazolo[3,2-a]pyrido[1,2-d]pyrazine-8-carboxamide] | 10 to 100
O=C(NCc1ccc(F)cc1F)c1cn2c(c(O)c1=O)C(=O)N1[C@@H](CO)CO[C@@H]1C2 [Example Z-14, (3S,11aR)—N-[(2,4-Difluorophenyl)methyl]-6-hydroxy-3-(hydroxymethyl)-5,7-dioxo-2,3,5,7,11,11a-hexahydro[1,3]oxazolo[3,2-a]pyrido[1,2-d]pyrazine-8-carboxamide] | 10 to 100
